# Reference: a melting point compilation (Tetko et al.; mined from patent text by program, amines drawn as free bases though some values may be those of a salt)
row,Compound,melting point [°C]
1,CC1(C)OC(=S)Nc2ccc(Br)cc21,221 to 222
2,CC(=O)OCCOCn1ccc2c(Cl)ncnc21,67 to 88
3,CSc1ccc(C2=NNC(C(=O)OC(C)(C)C)S2)cc1 (configuration not stated),71 to 72
4,COc1ccc(Nc2nc(NC3CCCCCC3)nc(N(C)C3CCN(C)CC3)n2)cc1Cl,173 to 176
5,CC(C)c1c(OCCNC(=O)OC(C)(C)C)noc1-c1cccs1,94 to 95
6,CN1C2CCC(N3C(=O)c4ccccc4C3=O)C1CC2 (configuration not stated),145 to 147
7,CCN(CC)C(=O)c1cc(C(C)(C)C)c(O)c(C(C)(C)C)c1,136 to 138
8,Nc1nc(Cl)c(Cl)nc1CO,174 to 176
9,COC(CCCNC(=O)CCCCC(=O)NCCCC(OC)OC)OC,73 to 75
10,CCN1CCCC1CNC(=O)Cc1ccc(-c2ccc3c(=O)c(C(=O)NC)c(C)n(CC)c3n2)s1 (configuration not stated),250
11,COC(=O)C=CCc1cc(C=CC(=O)OC(C)(C)C)cc(Cc2cccnc2)c1,91 to 93
12,CC(C)c1cc(Oc2c(I)cc(CP(=O)(O)O)cc2I)ccc1O,> 220
13,CCCN(c1nc(-c2ccc(OC)cc2Cl)c(C)s1)c1cc(N)ccc1OC,89
14,CCOC(=O)Cn1c(CC)nc2c(O)cccc21,148 to 150
15,CCCCC(=O)Nc1ccc(Cl)cc1C(=O)OC,48 to 49
16,Cc1ncccc1CC(=NC#N)NC(NC(=O)Cc1ccc(Cl)cc1)C(C)(C)C (configuration not stated),118 to 119
17,CN1C(=O)C(CCCCNC(=O)OCc2ccccc2)NC1=S (configuration not stated),135
18,OCCCN1CCN(c2ccccc2OCC(F)(F)F)CC1,94 to 96
19,CC(=O)Nc1ccc(OCC(O)CN(C)C)c(NC(C)=O)c1 (configuration not stated),118 to 120
20,CN(C)C(=O)N(SC(N)=S)c1ccccc1,185 to 188
21,Cc1nn(-c2ccc(C(F)(F)F)cn2)cc1COc1cc(/C=C/C(=O)O)n(C)n1,208 to 209
22,CCN1CC(=O)N(c2c(C(C)C)cccc2C(C)C)C1=S,159 to 161
23,CCOc1cc2c(cc1OCC)CCCC(C(=O)N1CCN(Cc3cc(OC)c(OC)c(OC)c3)CC1)=C2,133 to 134
24,CSc1nnsc1-c1cccs1,49 to 49.5
25,CN1Cc2c(ccc(F)c2Cl)-n2c(c(C#CC(C)(C)O)[nH]c2=O)C1,208 to 209
26,CCOC(=O)c1c(C(F)(F)F)nc(C(F)(F)F)c(C)c1O,23 to 24.5
27,Nc1c([N+](=O)[O-])cnn1-c1c(Cl)cc(Cl)cc1Cl,218 to 220

# Second part, the molecule after the results:
row,melting point [°C],Compound
1,202 to 203,CC(=O)Nc1ccc(S(=O)(=O)N(C)c2ccc(O)cc2)cc1
2,187 to 188,c1ccc(-c2[nH]c3ccccc3c2C2CCNCC2)cc1
3,> 300,O=C(O)c1ccc(-c2ccnc(-c3cc(-c4ccc(C(=O)O)s4)ccn3)c2)s1
4,139,COc1cc(C)nc(-c2cnnn2NS(=O)(=O)c2ccccc2Cl)n1
5,200 to 201,O=c1ccn(-c2ccccc2N2CCOCC2)nc1-c1ccnn1-c1ccccc1
6,240 to 241,O=C(Nc1c[nH]nc1C(=O)NC1CCCC1)c1ccccn1
7,126 to 128,COc1ccc(Cn2c(C)cc3cnnc(Cl)c32)cc1
8,150 to 153,CC(C)c1cccc(C(C)C)c1NC(=O)C1CCCC(CCCCCOc2ccccc2)(c2ccccc2)C1=O (configuration not stated)
9,> 230,CSc1nn2c(N3CCN(C)CC3)cc(Cl)nc2c1S(=O)(=O)c1ccccc1
10,105 to 108,O=C(O)COc1ccc(C(=O)c2ccc(F)cc2)c2ccccc12
11,265 to 267,N#Cc1ccc2c(c1)c1cc(C#N)ccc1n2Cc1ccccc1
12,126 to 133,CC(C)(C)OC(=O)ON=C(c1ccccc1)c1ccccc1
13,97 to 98,OC1(c2ccccc2Cc2ccccc2)CCC2(CC1)OCCO2
14,93,COC(CN1CCN(c2ccccc2)CC1)c1ccc(C)nc1 (configuration not stated)
15,92,COc1ccc(Cc2cccc(C(O)(C3=NCCCN3)c3ccccc3)c2)cc1 (configuration not stated)
16,228 to 230,CSc1nc(CC2CCN(c3ccc(F)cc3)CC2)nc(C(=O)NCC(=O)O)c1O
17,311 to 312,O=C1NC(=O)C2(N1)c1ccccc1-c1ncccc12 (configuration not stated)
18,160 to 162,C[C@@H](c1ccc(-c2ccc(C#N)cn2)cc1)N1CC[C@](CC(C)(C)O)(c2ccccc2)OC1=O
19,197 to 205,Cn1cc(C(=O)NCc2ccc(Cl)cc2)c(=O)c2ccoc21
20,139 to 140,Cc1oc(-c2ccccc2)nc1Cc1cc2cc(C#N)ccc2o1
21,188 to 189,O=C(Oc1ccc(F)cc1)N1CCN2C(=O)OC(c3ccccc3)(c3ccccc3)C2C1 (configuration not stated)
22,126 to 129,Cc1cc(C(O)(C=Cc2ccc(Cl)cc2)C(F)(F)F)ccc1N (configuration not stated)
23,210 to 213,CCOc1ccc(C(=O)Nc2c(Cl)cncc2Cl)c2c3ccccc3n(Cc3ccccc3)c12
24,172 to 174,CC1(CN2CCC(C(=O)c3ccc(C(F)(F)F)cc3)CC2)Cn2cc([N+](=O)[O-])nc2O1 (configuration not stated)
25,208 to 210,CC1=C(c2ccccc2)n2nc(C)c(C(N)=O)c2NC1
